In patent US10961264B2, “Process for isolating a (thio)phosphoric acid derivative” (BASF SE, priority 2015, dated 2021):

How the values were obtained:
[1] = Solubility of the (thio)phosphoric acid derivative in process solvents; type: physicochemical
[2] = as described in U.S. Pat. No. 8,513,460 B1; cited from earlier work

For `CCCNP(N)(N)=S` [NPPT, N-(n-propyl)thiophosphoric acid triamide], the solubility in dichloromethane ([1]; dichloromethane, even at higher temperatures of 30° C. to 80° C.) was “poor solubility”, the “dissolution in dichloromethane in amounts comparable to NBPT” value ([1]; dichloromethane, same conditions as NBPT) was “not possible to dissolve” and the “dissolution in ethyl acetate” value ([1]; ethyl acetate, upon moderate heating, precipitates again on cooling to room temperature) was “can be dissolved to a large extent”. For the same compound, the “solubility in aromatic solvents such as toluene” value ([1]; toluene, even at higher temperatures of 30° C. to 80° C.) was “poor solubility”, the “dissolution in toluene in amounts comparable to NBPT” value ([1]; toluene, same conditions as NBPT) was “not possible to dissolve” and the solubility in toluene ([1]; toluene, upon heating the product mixture (work-up of U.S. Pat. No. 8,513,460 B1)) was “not sufficiently soluble”.

For `CCCCNP(N)(N)=S` [NBPT, N-(n-butyl)thiophosphoric acid triamide], the dissolution in toluene [2] is given as “can be dissolved”.
